From article PMC8636514, “Therapeutic potential of TRPM8 antagonists in prostate cancer” (Scientific Reports, 2021)
Read-outs that look alike come from different tables or passages of the source.

Tests used:
[1] = molecular target: T1, human TRPM8 (Homo sapiens, UniProt Q7Z2W7); experiment: Patch-clamp assay on TRPM8 channels (HEK-293/TRPM8 cells, menthol-evoked currents); format: cell-based
T1 construct: expressed in transfected cells; host or cells: HEK-293/TRPM8 exon1 K3 cells
Protocol: Patch clamp experiments for compounds 4, 5 and 9 were done as described. HEK-293/TRPM8 exon 1 cells were seeded 3 or 4 days before experiment at a concentration of 4 and 2.5 million cells, respectively, onto a T225 flask. Before each experiment, cells were washed two times with D-PBS without Ca^2+/Mg^2+ (Euroclone, Milan, Italy) and trypsinized with trypsin−EDTA (Sigma-Aldrich; diluted 1/10). Cells were suspended in 25 mL of EX-CELL ACF CHO medium (Sigma-Aldrich, Milan, Italy), 0.625 mL of HEPES (Lonza, Walkersville, USA), 0.25 mL of 100 × penicillin/streptomycin (Lonza, Walkersville, USA), 0.1 mL of soybean trypsin inhibitor 10 mg/mL (Sigma-Aldrich), and placed on the automated patch-clamp platform (QPatch 16X, Sophion Bioscience, Ballerup, Denmark). A stock solution of L-Menthol (1 M, 100% DMSO), used as reference agonist, was freshly prepared. A diluted stock of 300 mM was prepared from the 1 M stock in 100% DMSO, and a final dilution was obtained using the extracellular solution to give a working concentration of 300 μM (1:1000, 0.1% final DMSO concentration). Stock solutions of the testing compounds (10 mM; 100% DMSO; stored at − 20 °C) were freshly prepared, as well. Further dilution of these stock solutions to a final concentration of 300 μM was performed from the 10 mM stock in 100% DMSO, and the working dilutions were performed just before the experiments using the extracellular solution containing 300 μM menthol. The highest concentration tested was 300 nM, with serial dilutions (1:10). DMSO was balanced to keep it constant throughout all the solutions in the same experiment (0.2% final DMSO concentration). Standard whole-cell voltage clamp experiments were performed at room temperature using the multihole technology. For the voltage clamp experiments on human TRPM8, data were sampled at 2 kHz. After establishment of the seal and the passage in the whole cell configuration, the cells were subjected to a voltage ramp (20 ms step at − 60 mV; 100 ms ramp − 60/ + 100 mV; 20 ms step at + 100 mV; return to − 60 mV) every 4 s. The antagonistic effect on human TRPM8 current of target compounds was evaluated after application of the agonist (menthol, 300 μM), in the absence or presence of increasing concentrations of the compound under investigation. Outward current evoked by the voltage ramp, measured in the step at + 100 mV were measured. The intracellular solution contained (mM) 135 CsCl, 10 BAPTA, 10 HEPES, 4 Na2ATP (pH 7.2 with CsOH). The extracellular solution contained (mM) 145 NaCl, 4 KCl, 1 MgCl2, 2 CaCl2, 10 HEPES, 10 glucose (pH 7.4 with NaOH). TRPM8 modulation by final compounds 3 and 6 has been previously determined by patch clamp measurements[29],[30].

[2] = test system: PSA; experiment: PSA secretion (ELISA) from LNCaP cells; format: cell-based, human; conditions: compound 1 μM; for androgen-induced PSA secretion: 10 nM R1881, 48 h; for PSA secretion when used alone: no R1881
Protocol: It was done in culture medium using the PSA ELISA kit (Abnova-Taiwan Corporation, Taiwan), according to the manufacturer’s instructions. Released PSA was analyzed at 450 nm using the EnSpire Multimode Plate Reader (Perkin-Elmer, U.S.A.).

T1 sequence (Q7Z2W7 whole entry): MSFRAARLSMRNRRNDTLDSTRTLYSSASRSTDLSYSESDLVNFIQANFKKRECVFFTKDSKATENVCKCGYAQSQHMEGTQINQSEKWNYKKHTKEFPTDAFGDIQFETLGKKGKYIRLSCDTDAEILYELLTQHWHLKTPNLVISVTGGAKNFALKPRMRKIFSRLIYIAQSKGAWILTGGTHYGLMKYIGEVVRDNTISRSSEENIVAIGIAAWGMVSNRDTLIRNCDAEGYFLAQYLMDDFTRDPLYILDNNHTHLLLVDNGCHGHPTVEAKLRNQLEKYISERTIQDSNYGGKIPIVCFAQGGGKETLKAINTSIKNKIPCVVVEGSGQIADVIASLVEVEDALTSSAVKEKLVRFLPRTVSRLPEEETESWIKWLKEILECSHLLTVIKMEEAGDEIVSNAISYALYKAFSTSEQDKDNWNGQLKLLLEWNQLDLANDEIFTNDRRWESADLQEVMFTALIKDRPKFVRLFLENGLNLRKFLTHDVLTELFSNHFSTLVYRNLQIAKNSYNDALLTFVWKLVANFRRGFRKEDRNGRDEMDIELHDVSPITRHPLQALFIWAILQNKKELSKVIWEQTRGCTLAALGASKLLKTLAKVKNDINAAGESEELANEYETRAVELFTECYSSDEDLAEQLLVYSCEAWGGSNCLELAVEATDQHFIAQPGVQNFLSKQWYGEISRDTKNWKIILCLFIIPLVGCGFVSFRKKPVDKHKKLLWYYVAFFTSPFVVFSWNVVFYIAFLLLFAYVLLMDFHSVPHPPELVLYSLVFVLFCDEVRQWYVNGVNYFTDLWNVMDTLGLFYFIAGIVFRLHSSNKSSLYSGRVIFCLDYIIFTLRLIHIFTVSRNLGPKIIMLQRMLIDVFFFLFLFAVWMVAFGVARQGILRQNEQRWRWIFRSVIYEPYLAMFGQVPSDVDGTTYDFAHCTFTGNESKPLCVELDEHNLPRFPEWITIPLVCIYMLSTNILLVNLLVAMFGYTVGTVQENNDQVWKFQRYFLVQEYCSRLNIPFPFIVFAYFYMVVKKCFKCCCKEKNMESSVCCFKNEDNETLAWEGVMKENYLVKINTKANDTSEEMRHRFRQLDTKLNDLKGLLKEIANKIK

| Compound | IC50 ([1]; 300 µM menthol-evoked currents, read-out: Potency IC50) | IC50 ([1]; TRPM8 antagonist, menthol-evoked currents, one range for both compounds, read-out: IC50) | inhibitory effect on menthol-evoked TRPM8 currents ([1]; dependence on concentration) | androgen-induced PSA secretion [2] | PSA secretion when used alone [2] |
| --- | --- | --- | --- | --- | --- |
| c1ccc(COc2ccc3[nH]cc(CCNCc4ccc(Oc5ccccc5)cc4)c3c2)cc1 [Compound 4] | 204 ± 15 nM | 204 to 340 nM | concentration-dependent | negligible inhibition | Neither the two TRPM8 antagonists, nor enzalutamide did modify such response |
| COC(=O)[C@H](Cc1c[nH]c2ccccc12)N(Cc1ccccc1)Cc1ccccc1 [Compound 6] | – | – | – | negligible inhibition | Neither the two TRPM8 antagonists, nor enzalutamide did modify such response |
